{
  "source": "patent US20240050392A1",
  "about": "“COMPOSITIONS AND METHODS FOR IMPROVED TREATMENT OF PLATINUM-BASED CHEMOTHERAPEUTIC RESISTANT TUMORS” (THE REGENTS OF THE UNIVERSITY OF THE COLORADO, A BODY …, priority 2021, published 2024)",
  "key": {"[1]": {"target": "T1, volume regulated anion channel (VRAC), LRRC8A and LRRC8D (Homo sapiens, UniProt Q7L1W4+Q8IWT6)", "T1 sequence (Q8IWT6 1-810)": "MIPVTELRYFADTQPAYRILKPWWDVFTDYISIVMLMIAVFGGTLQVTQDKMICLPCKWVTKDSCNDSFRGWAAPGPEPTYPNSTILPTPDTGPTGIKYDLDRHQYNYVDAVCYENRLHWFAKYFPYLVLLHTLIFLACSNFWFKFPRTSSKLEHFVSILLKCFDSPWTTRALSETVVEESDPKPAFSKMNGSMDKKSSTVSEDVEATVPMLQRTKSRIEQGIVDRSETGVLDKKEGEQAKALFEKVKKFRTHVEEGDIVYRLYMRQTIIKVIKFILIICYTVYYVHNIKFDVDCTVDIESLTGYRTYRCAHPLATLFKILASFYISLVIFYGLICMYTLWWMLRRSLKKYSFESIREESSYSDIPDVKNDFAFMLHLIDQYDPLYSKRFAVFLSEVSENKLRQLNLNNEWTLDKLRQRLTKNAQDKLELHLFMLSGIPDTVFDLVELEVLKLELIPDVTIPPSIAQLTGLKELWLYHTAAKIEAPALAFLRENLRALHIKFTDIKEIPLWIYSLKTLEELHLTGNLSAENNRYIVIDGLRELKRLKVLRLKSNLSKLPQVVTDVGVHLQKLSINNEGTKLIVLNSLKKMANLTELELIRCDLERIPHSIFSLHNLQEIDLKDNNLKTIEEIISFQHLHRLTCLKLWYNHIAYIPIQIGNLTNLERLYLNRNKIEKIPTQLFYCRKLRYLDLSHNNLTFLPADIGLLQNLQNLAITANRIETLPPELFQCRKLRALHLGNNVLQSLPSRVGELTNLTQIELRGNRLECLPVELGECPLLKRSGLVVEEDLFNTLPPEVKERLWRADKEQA", "T1 sequence (Q7L1W4 1-858)": "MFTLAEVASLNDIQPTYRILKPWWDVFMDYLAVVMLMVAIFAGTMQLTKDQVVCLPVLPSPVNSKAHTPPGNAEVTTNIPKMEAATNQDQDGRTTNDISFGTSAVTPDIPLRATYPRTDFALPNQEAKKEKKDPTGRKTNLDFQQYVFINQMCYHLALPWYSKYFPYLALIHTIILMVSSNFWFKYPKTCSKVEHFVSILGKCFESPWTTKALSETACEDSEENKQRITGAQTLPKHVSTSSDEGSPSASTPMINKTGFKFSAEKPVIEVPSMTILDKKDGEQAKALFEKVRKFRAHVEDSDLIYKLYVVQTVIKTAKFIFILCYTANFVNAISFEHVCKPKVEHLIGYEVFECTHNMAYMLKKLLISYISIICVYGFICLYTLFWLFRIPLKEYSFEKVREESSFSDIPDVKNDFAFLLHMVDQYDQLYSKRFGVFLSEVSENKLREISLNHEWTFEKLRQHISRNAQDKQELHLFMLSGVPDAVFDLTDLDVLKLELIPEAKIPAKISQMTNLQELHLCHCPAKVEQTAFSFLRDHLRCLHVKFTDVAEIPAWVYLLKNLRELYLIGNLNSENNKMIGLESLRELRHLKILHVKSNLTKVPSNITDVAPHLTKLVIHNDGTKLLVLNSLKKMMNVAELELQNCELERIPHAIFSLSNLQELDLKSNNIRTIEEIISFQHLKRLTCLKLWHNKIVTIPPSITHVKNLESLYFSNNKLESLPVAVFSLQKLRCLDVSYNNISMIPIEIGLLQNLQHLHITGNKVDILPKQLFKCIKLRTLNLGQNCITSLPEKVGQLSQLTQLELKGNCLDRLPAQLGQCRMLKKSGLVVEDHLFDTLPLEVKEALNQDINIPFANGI", "details": "as reported; cited from earlier work"}, "NPEPPS mRNA": {"test_system": "NPEPPS mRNA", "experiment": "Cisplatin induced NPEPPS mRNA expression (RT-qPCR)", "assay_type": "cell-based, human", "procedure": "Cisplatin induced NPEPPS mRNA expression. Total RNA was isolated from cells using Trizol (ThermoFisher) and/or phenol-chloroform based extraction methods. Residual DNA was digested with DNAse I (Life technologies). cDNA synthesis was performed using Superscript II Reverse Transcriptase kit (Life technologies) using random primers. RT-qPCR reactions were performed on a CFX Connect Real-Time PCR Detection System thermocycler (Bio-Rad) using TaqMan gene expression assays for NPEPPS and HMBS as a housekeeping gene (ThermoFisher) in combination with SensiFAST Probe No-ROX Kit (Bioline, Toronto, Canada). Expression data was calculated using 2^−ΔΔCt. All cell line experiments were performed in triplicate from independently grown cells. Comparisons at the indicated dose of cisplatin were made to the control treatment (0 μM cisplatin) using a t-test."}, "[2]": {"details": "cited from earlier work"}},
  "data": [
    {"smiles": "N.N.[Cl][Pt][Cl]", "note": "[cisplatin]", "values": [
      {"measurement": "share of intracellular cisplatin transported through VRAC channels", "setting": "[1]", "value": "50-70%"},
      {"measurement": "NPEPPS mRNA", "setting": "NPEPPS mRNA; KU1919-Par and KU1919-GemCis cells after 24 hours of cisplatin treatment", "value": "increased"},
      {"measurement": "NPEPPS induction", "setting": "NPEPPS mRNA; patient-derived organoids treated with cisplatin", "value": "induced NPEPPS in a dose dependent manner"},
      {"measurement": "maximum concentration of cisplatin in patients", "setting": "[2]", "value": 14, "unit": "µM"}
    ]}
  ]
}
